# Results from patent US20130303539A1, “COMPOUNDS WITH TRPV4 ACTIVITY, COMPOSITIONS AND ASSOCIATED METHODS THEREOF” (priority 2012, published 2013).
# Assays:
# retinal ganglion cells = test: RGC density in retinal wholemounts of the MB mouse model; format: in vivo
# Description: FIG. 2 confirms that the mouse model for glaucoma causes RGC degeneration. Specifically, microbeads (MBs) were injected into the anterior chamber of a mouse eye. The MBs increase intraocular IOP above 15 mm Hg by blocking outflow of the aqueous humor within the anterior chamber of the eye. MBs were reinjected as needed to maintain a high IOP, typically one injection every two weeks. Contralateral eyes were injected intraocularly with the vehicle PBS (phosphate buffered saline) as controls. […] IOP levels were measured at least twice weekly before and after intraocular injections. After injections, mice recovered for 48 hours before IOP measurements resumed. Following 4 or 8 weeks of IOP elevation, mice were intracardially perfused with 4% paraformaldehyde in 1×PBS to fix the retinas. Retinas were then removed and processed for immunohistochemistry (IHC). Whole retinas were rinsed with 1×PBS three times at room temperature then incubated in blocking buffer (1×PBS+1% BSA). […] The density of RGCs was imaged with a confocal microscope (Zeiss LSM 510) and quantified by counting NeuN-, CFP- and/or Tuj-1—labeled somata in the RGC layer of the retinal wholemount preparation. […]
# RGD density was quantified in retinas isolated from TuJ-1^+ mice and transgenic Thy1-CRP^+ transgenic mice that had been injected with either MBs or vehicle (PBS) then dosed with either compound 1 or vehicle (PBS). […] TuJ-1 was quantified by immunohistochemistry using a Tuj-1-specific antibody conjugated to a fluorescent Alexa 488 or Alexa 594 secondary antibody. […] For fluorescence immunocytochemistry, retinal wholemounts were washed in PBS, then placed for 30 min. to 1 hour in blocking solution (10 ml PBS, 30 μL Triton-X 100, 100 mg bovine serum albumin, 100 μL 10% w/v Na azide solution) in OCT (Ted Pella, Redding, Pa.). […]
# [1] = system: MB mouse model of glaucoma; test: IOP in microbead (MB) mouse model of glaucoma, intraperitoneal dosing; format: in vivo
# Description: FIG. 2 confirms that the mouse model for glaucoma causes RGC degeneration. Specifically, microbeads (MBs) were injected into the anterior chamber of a mouse eye. The MBs increase intraocular IOP above 15 mm Hg by blocking outflow of the aqueous humor within the anterior chamber of the eye. MBs were reinjected as needed to maintain a high IOP, typically one injection every two weeks. Contralateral eyes were injected intraocularly with the vehicle PBS (phosphate buffered saline) as controls. […] IOP levels were measured at least twice weekly before and after intraocular injections. After injections, mice recovered for 48 hours before IOP measurements resumed. […] Retinas were then removed and processed for immunohistochemistry (IHC). […] After rinsing with PBS, PBS containing the secondary antibody conjugated to fluorophores (Alexa 488 or Alexa 594; […] Retinas were rinsed and flat-mounted on microscope slides. Mounting medium was added and retinal wholemounts were coverslipped. The density of RGCs was imaged with a confocal microscope (Zeiss LSM 510) and quantified by counting NeuN-, CFP- and/or Tuj-1—labeled somata in the RGC layer of the retinal wholemount preparation. Injection of microbeads induces RGC degeneration after 8 weeks but not after 4 weeks. […] Mice were sedated with IP injection of Avertin with final amount calculated by weight (e.g., 0.5 ml for 21-24 g animals). […]
smiles,measurement,setting,value
"Cc1c(C(=O)Nc2cccc(C(F)(F)F)c2)cc(-c2ccccc2)n1CCCN1CCOCC1 [Compound 1, N-(3-(trifluoromethyl)phenyl)-2-methyl-1-(3-morpholinopropyl)-5-phenyl-1H-pyrrole-3-carboxamide]","TuJ-1+ cells in the alpha, beta and omega regions","retinal ganglion cells; MB- or PBS-injected eyes, IP dosing",rescues RGCs across all regions of the retina
same,"CFP+ cells in the alpha, beta and omega regions","retinal ganglion cells; Thy1-CFP transgenic mice, MB- or PBS-injected eyes, IP dosing",rescues RGCs across all regions of the retina
same,density of RGCs (TuJ-1+ cells and Thy1:CFP+ cells),"retinal ganglion cells; after 8 weeks of increased IOP, MB-injected mice",RGC loss was rescued
same,IOP,"[1]; 10 mg/kg body weight intraperitoneally, MB-injected eyes vs PBS-injected eyes",blocked the increase in IOP to the level observed in control mice
same,"average IOP, cumulative effectiveness","[1]; daily IP injections, cumulative data from 3 independent experiments",blocks MB-induced increases in IOP
